Columns and labels:
Assay in all cases: combination Emax (second highest fraction inhibited in the dose matrix, 72 h); higher = more inhibition; extreme values may be limits of the assay
[1] = tested on: KALS-1 (Glioblastoma)
How it was run: (§1)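 Bliss excess equals the observed combination effect minus the expected value EA + EB − EA·EB, where EA and EB are the effects of each agent alone. Combination Emax is the second-highest inhibition within the matrix. Inhibition was scaled from CellTiter-Glo 2.0 luminescence, with 0 set by vehicle wells and 1 by blank wells, after 72 hours of two-drug dosing of cells plated in 1536-well plates.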

[2] = tested on: UACC-257 (Melanoma)
How it was run: as §1

[3] = tested on: Raji (Burkitt's Lymphoma)
How it was run: as §1

[4] = tested on: RCC-JW (Kidney Carcinoma)
How it was run: as §1

[5] = tested on: NCI-H3118 (Head and Neck Carcinoma)
How it was run: as §1

[6] = tested on: COR-L88 (Small Cell Lung Carcinoma)
How it was run: as §1

[7] = tested on: T47D (Breast Carcinoma)
How it was run: as §1

[8] = tested on: SUP-M2 (T-Cell Non-Hodgkin's Lymphoma)
How it was run: as §1

[9] = tested on: CL-11 (Colorectal Carcinoma)
How it was run: as §1

[10] = tested on: AM-38 (Glioblastoma)
How it was run: as §1

[11] = tested on: SiHa (Cervical Carcinoma)
How it was run: as §1

[12] = tested on: MM1S (Plasma Cell Myeloma)
How it was run: as §1

[13] = tested on: IST-MEL1 (Melanoma)
How it was run: as §1

[14] = tested on: MS-1 (Small Cell Lung Carcinoma)
How it was run: as §1

[15] = tested on: TUR (Acute Myeloid Leukemia)
How it was run: as §1

[16] = tested on: LS-1034 (Colorectal Carcinoma)
How it was run: as §1

[17] = tested on: P32-ISH (Burkitt's Lymphoma)
How it was run: as §1

[18] = tested on: SNU-C2B (Colorectal Carcinoma)
How it was run: as §1

[19] = tested on: OAW-28 (Ovarian Carcinoma)
How it was run: as §1

[20] = tested on: PL4 (Pancreatic Carcinoma)
How it was run: as §1

| SMILES | combination Emax [1] | combination Emax [2] | combination Emax [3] | combination Emax [4] | combination Emax [5] | combination Emax [6] | combination Emax [7] | combination Emax [8] | combination Emax [9] | combination Emax [10] | combination Emax [11] | combination Emax [12] | combination Emax [13] | combination Emax [14] | combination Emax [15] | combination Emax [16] | combination Emax [17] | combination Emax [18] | combination Emax [19] | combination Emax [20] |
| --- | --- | --- | --- | --- | --- | --- | --- | --- | --- | --- | --- | --- | --- | --- | --- | --- | --- | --- | --- | --- |
| CC1(C)CCC(CN2CCN(c3ccc(C(=O)NS(=O)(=O)c4ccc(NCC5CCOCC5)c([N+](=O)[O-])c4)c(Oc4cnc5[nH]ccc5c4)c3)CC2)=C(c2ccc(Cl)cc2)C1 [Venetoclax] + CN(C)CCCOc1ccc(-c2ccc3ncc4c(c3c2)n(C2CCOCC2)c(=O)n4C)cn1 [AZD0156] (first compound max 1 µM, 7x7, partner max 1 µM) | 0.646 | 0.177 | 0.244 | 0.184 | 0.181 | 0.525 | 0.344 | 0.264 | 0.11 | 0.209 | 0.152 | 0.221 | 0.42 | 0.445 | 0.0455 | 0.164 | 0.0131 | 0.156 | 0.116 | 0.248 |
| CC1(C)CCC(CN2CCN(c3ccc(C(=O)NS(=O)(=O)c4ccc(NCC5CCOCC5)c([N+](=O)[O-])c4)c(Oc4cnc5[nH]ccc5c4)c3)CC2)=C(c2ccc(Cl)cc2)C1 [Venetoclax] + COc1cc(Nc2ncc3c(n2)-c2ccc(Cl)cc2C(c2c(F)cccc2OC)=NC3)ccc1C(=O)O [Alisertib] (first compound max 1 µM, 7x7, partner max 10 µM) | 0.647 | 0.191 | 0.252 | 0.286 | 0.312 | 0.727 | 0.326 | 0.902 | 0.673 | 0.41 | 0.212 | 0.423 | 0.574 | 0.392 | 0.628 | 0.227 | 1 | 0.291 | 0.476 | 0.448 |
| CC1(C)CCC(CN2CCN(c3ccc(C(=O)NS(=O)(=O)c4ccc(NCC5CCOCC5)c([N+](=O)[O-])c4)c(Oc4cnc5[nH]ccc5c4)c3)CC2)=C(c2ccc(Cl)cc2)C1 [Venetoclax] + C[C@@H]1COCCN1C2=NC(=NC(=C2)C3(CC3)[S@](=N)(=O)C)C4=C5C=CNC5=NC=C4 [AZD6738] (first compound max 1 µM, 7x7, partner max 10 µM) | 0.83 | 0.169 | 0.733 | 0.469 | 0.568 | 0.769 | 0.35 | 0.979 | 0.681 | 0.732 | 0.286 | 0.527 | 0.823 | 0.702 | 0.963 | 0.624 | 0.933 | 0.592 | 0.472 | 0.709 |
| CC1(C)CCC(CN2CCN(c3ccc(C(=O)NS(=O)(=O)c4ccc(NCC5CCOCC5)c([N+](=O)[O-])c4)c(Oc4cnc5[nH]ccc5c4)c3)CC2)=C(c2ccc(Cl)cc2)C1 [Venetoclax] + C[C@@H](Nc1cc(F)cc(F)c1)c1cc(C(=O)N(C)C)cc2c(=O)cc(N3CCOCC3)oc12 [AZD8186] (first compound max 1 µM, 7x7, partner max 3 µM) | 0.741 | 0.121 | 0.172 | 0.293 | 0.0963 | 0.617 | 0.272 | 0.344 | 0.083 | 0.157 | 0.243 | 0.288 | 0.336 | 0.32 | 0.209 | 0.0835 | 0.341 | 0.125 | 0.331 | 0.243 |
| CC1(C)CCC(CN2CCN(c3ccc(C(=O)NS(=O)(=O)c4ccc(NCC5CCOCC5)c([N+](=O)[O-])c4)c(Oc4cnc5[nH]ccc5c4)c3)CC2)=C(c2ccc(Cl)cc2)C1 [Venetoclax] + Cc1cc2ncnn2cc1Nc1ncc2c(n1)n(C1CCOCC1)c(=O)n2C [AZD7648] (first compound max 1 µM, 7x7, partner max 10 µM) | 0.693 | 0.159 | 0.152 | 0.151 | 0.137 | 0.515 | 0.32 | 0.283 | 0.157 | 0.318 | 0.18 | 0.229 | 0.41 | 0.445 | 0.102 | 0.0935 | 0.0629 | 0.26 | 0.152 | 0.357 |
| CC1(C)CCC(CN2CCN(c3ccc(C(=O)NS(=O)(=O)c4ccc(NCC5CCOCC5)c([N+](=O)[O-])c4)c(Oc4cnc5[nH]ccc5c4)c3)CC2)=C(c2ccc(Cl)cc2)C1 [Venetoclax] + Cn1cnc2c(F)c(Nc3ccc(Br)cc3Cl)c(C(=O)NOCCO)cc21 [Selumetinib] (first compound max 1 µM, 7x7, partner max 3 µM) | 0.578 | 0.621 | 0.0995 | 0.144 | 0.294 | 0.543 | 0.0758 | 0.366 | 0.528 | 0.498 | 0.16 | 0.306 | 0.415 | 0.396 | 0.179 | 0.537 | 0.239 | 0.27 | 0.284 | 0.443 |

— the supplement of paper PMC11061612
